The source made the active and inactive calls. The rule behind the calls is not given here.
Key:
[1] = test system: A549; experiment: Cytotoxicity against human A549 cells after 72 hrs by MTT assay; format: functional, cell-based; details: A549, 72 h
[2] = test system: MCF7; experiment: cells; details: Homo sapiens, MCF7, 72 h
Description: Cytotoxicity against human MCF7 cells after 72 hrs by MTT assay

[3] = test system: OVCAR; experiment: Cytotoxicity against human OVCAR cells after 72 hrs by MTT assay; format: functional, cell-based
[4] = Cytotoxicity against human LN229 cells assessed as reduction in cell survival after 72 hrs by MTT assay; format: functional, cell-based; details: LN-229, 72 h
[5] = test system: HeLa; experiment: cells; details: Homo sapiens, 72 h
Description: Cytotoxicity against human HeLa cells after 72 hrs by MTT assay

[6] = test system: LN-18; experiment: Inhibition of DNA synthesis in human LN18 cells assessed as inhibition of tritiated thymidine incorporation at 1 to 3 uM after 24 hrs by beta counting; format: functional, cell-based
[7] = (§1) Cytotoxicity against human LN18 cells assessed as reduction in cell survival after 72 hrs by MTT assay; format: functional, cell-based; details: LN-18, 72 h
[8] = in vitro; details: pampa, pH 6.5
Description: Apparent permeability of compound at pH 6.5 by PAMPA

[9] = Cytotoxicity against human LNZ308 cells after 72 hrs by MTT assay; format: functional, cell-based; details: LNZ308, 72 h
[10] = test system: Caco-2; experiment: cells; details: Homo sapiens, Caco-2, 72 h
Description: Cytotoxicity against human Caco2 cells after 72 hrs by MTT assay

[11] = Cytotoxicity against human Me300 cells after 72 hrs by MTT assay; format: functional, cell-based; details: Me300, 72 h
[12] = test system: LN-229; experiment: Inhibition of DNA synthesis in human LN229 cells assessed as inhibition of tritiated thymidine incorporation at 1 to 3 uM after 24 hrs by beta counting; format: functional, cell-based
[13] = Chemical stability of compound at pH 7.4 after 24 hrs; format: physicochemical; details: buffer, pH 7.4, 24 h
[14] = cells; details: Homo sapiens, HCEC, 72 h
Description: Cytotoxicity against human HCEC cells assessed as reduction in cell survival after 72 hrs by MTT assay

[15] = pampa, pH 6.5
Description: Permeability of compound at pH 6.5 assessed as compound binding to lipid membrane by PAMPA

[16] = biological target: T1, Lanosterol synthase (Homo sapiens, UniProt P48449); experiment: Inhibition of human liver microsome 2,3-OSC after 1 hr by Silica gel plate phosphor imaging
T1 sequence (P48449 whole entry): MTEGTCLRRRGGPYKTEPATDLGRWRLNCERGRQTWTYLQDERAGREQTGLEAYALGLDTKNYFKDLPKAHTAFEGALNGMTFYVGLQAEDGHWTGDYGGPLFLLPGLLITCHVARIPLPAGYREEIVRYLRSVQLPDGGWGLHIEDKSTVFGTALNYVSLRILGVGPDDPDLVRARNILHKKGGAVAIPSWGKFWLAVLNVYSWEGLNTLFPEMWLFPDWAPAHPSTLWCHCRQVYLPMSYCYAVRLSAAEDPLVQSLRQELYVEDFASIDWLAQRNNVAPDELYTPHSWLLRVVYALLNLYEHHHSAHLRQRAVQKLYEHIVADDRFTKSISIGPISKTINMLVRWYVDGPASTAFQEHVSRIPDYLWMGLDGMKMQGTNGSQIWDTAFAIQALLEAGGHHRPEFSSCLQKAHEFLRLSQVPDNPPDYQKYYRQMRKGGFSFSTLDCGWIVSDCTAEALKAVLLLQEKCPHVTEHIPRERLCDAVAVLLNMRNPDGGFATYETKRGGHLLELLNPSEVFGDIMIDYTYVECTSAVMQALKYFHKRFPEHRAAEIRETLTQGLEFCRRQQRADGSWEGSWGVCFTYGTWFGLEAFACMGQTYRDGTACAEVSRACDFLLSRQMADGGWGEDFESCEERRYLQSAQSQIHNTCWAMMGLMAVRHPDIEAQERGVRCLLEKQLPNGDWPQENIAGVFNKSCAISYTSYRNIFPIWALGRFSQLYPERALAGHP

[17] = test system: KB; experiment: Cytotoxicity against human KB cells after 72 hrs by MTT assay; format: functional, cell-based
[18] = test system: LNCaP; experiment: Cytotoxicity against human LNCAP cells after 72 hrs by MTT assay; format: functional, cell-based
[19] = physchem; details: 1-octanol/TAPSO buffer, pH 7.4
Description: 1-Octanol-TAPSO buffer distribution coefficient, log D of the compound at pH 7.4 by shake-flask method

[20] = Chemical stability of compound at pH 4.0 after 24 hrs; format: physicochemical; details: buffer, pH 4, 24 h
[21] = test system: LN-18; experiment: Inhibition of lipid synthesis in human LN18 cells assessed as [14C]acetate incorporation after 24 hrs by Beta-counting; format: functional, cell-based
[22] = test system: LN-229; experiment: Inhibition of lipid synthesis in human LN229 cells assessed as [14C]acetate incorporation after 24 hrs by Beta-counting; format: functional, cell-based
[23] = test system: LN-229; experiment: Cytotoxicity against human LN229 cells at 4 uM after 72 hrs by MTT assay in presence of atorvastatin; format: functional, cell-based
[24] = test system: LN-18; experiment: as §1; format: functional, cell-based
[25] = test system: LN-18; experiment: Cytotoxicity against human LN18 cells at 2 to 10 uM after 72 hrs by MTT assay in presence of atorvastatin; format: functional, cell-based

SMILES: C=CCN(C)CCCCC[C@H]1CC[C@H](N(C)C(=O)Oc2ccc(C(F)(F)F)cc2)CC1.O=C(O)CC(O)(CC(=O)O)C(=O)O
- IC50 [1]: 6.93 µM
- IC50 [2]: 20.7 µM
- IC50 [3]: 12.9 µM
- IC50 [4]: 8.3 µM
- IC50 [5]: 1.06 µM
- inhibition [6]: Active
- IC50 [7]: 2.8 µM
- Papp [8]: 13 ×10⁻⁶ cm/s
- IC50 [9]: 2.1 µM
- IC50 [10]: 6.3 µM
- IC50 [11]: 16 µM
- inhibition [12]: Active
- Stability [13]: Stable
- IC50 [14]: 5.1 µM
- permeability [15]: 25%
- IC50 [16]: 0.005 µM
- IC50 [17]: 1.02 µM
- IC50 [18]: 4.62 µM
- logD [19]: 3.48
- Stability [20]: Stable

SMILES: CCN(CCO)CCCC#C[C@H]1CC[C@H](N(C)C(=O)Oc2ccc(Cl)cc2)CC1.Cl
- IC50 [1]: 13.6 µM
- IC50 [2]: > 30 µM
- IC50 [3]: > 30 µM
- IC50 [4]: 21.1 µM
- IC50 [5]: 8.64 µM
- inhibition [6]: Active
- IC50 [7]: 13.4 µM
- Papp [8]: 2.87 ×10⁻⁶ cm/s
- IC50 [9]: 15.3 µM
- IC50 [10]: 4.81 µM
- IC50 [11]: 26.2 µM
- inhibition [12]: Active
- Stability [13]: Stable
- IC50 [14]: 29.1 µM
- permeability [15]: 10%
- IC50 [16]: 0.01 µM
- IC50 [17]: 5.86 µM
- IC50 [18]: 23.6 µM
- logD [19]: 2.51
- Stability [20]: Stable

SMILES: CC(C)c1c(C(=O)Nc2ccccc2)c(-c2ccccc2)c(-c2ccc(F)cc2)n1CC[C@@H](O)C[C@@H](O)CC(=O)O [ATORVASTATIN CALCIUM]
- IC50 [1]: > 30 µM
- IC50 [2]: > 30 µM
- IC50 [3]: > 30 µM
- IC50 [4]: 8.1 µM
- inhibition [21]: Dose-dependent effect
- IC50 [5]: 4.22 µM
- inhibition [6]: Active
- inhibition [22]: Dose-dependent effect
- IC50 [7]: 6.9 µM
- IC50 [9]: 7.44 µM
- IC50 [11]: 1.2 µM
- inhibition [12]: Active
- IC50 [17]: 1.97 µM
- IC50 [18]: > 30 µM

SMILES: CN(CC[C@H]1CC[C@H](C(=O)N2CCC(O)CC2)CC1)C(=O)Oc1ccc(Cl)cc1
- IC50 [1]: > 30 µM
- IC50 [2]: > 30 µM
- IC50 [3]: > 30 µM
- IC50 [4]: > 30 µM
- IC50 [5]: 21.8 µM
- inhibition [6]: Active
- IC50 [7]: > 30 µM
- Papp [8]: 5.05 ×10⁻⁶ cm/s
- IC50 [9]: > 30 µM
- IC50 [10]: > 30 µM
- IC50 [11]: 25 µM
- inhibition [12]: Active
- Stability [13]: Stable
- IC50 [14]: > 30 µM
- permeability [15]: 2%
- IC50 [16]: 0.0287 µM
- IC50 [17]: 7.58 µM
- IC50 [18]: 5.55 µM
- logD [19]: 2.93
- Stability [20]: Stable

SMILES: CN(CCO)CCCCC[C@H]1CC[C@H](N(C)S(=O)(=O)c2ccc(C(F)(F)F)cc2)CC1.O=C(O)/C=C/C(=O)O
- IC50 [1]: 6.09 µM
- IC50 [2]: 12.3 µM
- IC50 [3]: > 30 µM
- IC50 [4]: > 30 µM
- IC50 [5]: 4.53 µM
- inhibition [6]: Active
- IC50 [7]: > 30 µM
- Papp [8]: 1.79 ×10⁻⁶ cm/s
- IC50 [9]: > 30 µM
- IC50 [10]: 2.67 µM
- IC50 [11]: 20.9 µM
- inhibition [12]: Active
- Stability [13]: Stable
- IC50 [14]: 19 µM
- permeability [15]: 50%
- IC50 [16]: 0.0112 µM
- IC50 [17]: 4.28 µM
- IC50 [18]: > 30 µM
- logD [19]: 3.07
- Stability [20]: Stable

SMILES: C=CCN(C)CCCCCCOc1ccc2c(-c3ccc(Br)cc3)nsc2c1.O=C(O)/C=C/C(=O)O
- IC50 [1]: 6.06 µM
- IC50 [2]: 8.3 µM
- IC50 [3]: > 30 µM
- Activity [23]: Active
- IC50 [4]: 5.2 µM
- IC50 [5]: 8.85 µM
- inhibition [6]: Active
- Activity [24]: Dose-dependent effect
- IC50 [7]: 7.6 µM
- Papp [8]: 0.57 ×10⁻⁶ cm/s
- Activity [25]: Active
- IC50 [9]: 4.4 µM
- IC50 [10]: 1.97 µM
- IC50 [11]: 13.4 µM
- inhibition [12]: Active
- Stability [13]: Stable
- IC50 [14]: 4.8 µM
- permeability [15]: 40%
- IC50 [17]: 8.52 µM
- IC50 [18]: 19.5 µM
- logD [19]: 3.43
- Stability [20]: Stable

SMILES: CCCN(C)CCCC#C[C@H]1CC[C@H](N(C)C(=O)Oc2ccc(Cl)cc2)CC1.O=C(O)/C=C/C(=O)O
- IC50 [1]: 8.41 µM
- IC50 [2]: > 30 µM
- IC50 [3]: > 30 µM
- IC50 [4]: > 30 µM
- IC50 [5]: 6.82 µM
- inhibition [6]: Active
- IC50 [7]: 28 µM
- Papp [8]: 0.81 ×10⁻⁶ cm/s
- IC50 [9]: 12.6 µM
- IC50 [10]: 6.75 µM
- IC50 [11]: 18.9 µM
- inhibition [12]: Active
- Stability [13]: Stable
- IC50 [14]: 26.3 µM
- permeability [15]: 0%
- IC50 [16]: 0.0078 µM
- IC50 [17]: 4.53 µM
- IC50 [18]: 18.7 µM
- logD [19]: 3.28
- Stability [20]: Stable

SMILES: CCN(CCO)C[C@H]1CC[C@H](CCN(C)C(=O)Oc2ccc(C(F)(F)F)cc2)CC1.O=C(O)CC(O)(CC(=O)O)C(=O)O
- IC50 [1]: 22.7 µM
- IC50 [2]: > 30 µM
- IC50 [3]: > 30 µM
- IC50 [4]: > 30 µM
- IC50 [5]: 10 µM
- inhibition [6]: Active
- IC50 [7]: 18.9 µM
- Papp [8]: 5.11 ×10⁻⁶ cm/s
- IC50 [9]: 23.2 µM
- IC50 [10]: 10 µM
- IC50 [11]: > 30 µM
- inhibition [12]: Active
- Stability [13]: Stable
- IC50 [14]: > 30 µM
- permeability [15]: 5%
- IC50 [16]: 0.0127 µM
- IC50 [17]: 10 µM
- IC50 [18]: > 30 µM
- logD [19]: 2.53
- Stability [20]: Stable

From ChEMBL document CHEMBL2163299, “Cytotoxic effects of combination of oxidosqualene cyclase inhibitors with atorvastatin in human cancer cells” (J Med Chem, 2012)
